Data published in US9162992B2, “Compounds and compositions for treatment of breathing control disorders or diseases” (GALLEON PHARMACEUTICALS, INC., priority 2010, dated 2015).

Key:
[1] = molecular target: T1, BK potassium channel expressed in GH3 cells (Rattus norvegicus, UniProt Q62976); experiment: BK potassium channel current in GH3 cells, inside-out patches; type: cell-based
T1 construct: endogenous in cells; host or cells: GH3 cells
Procedure: Stock solutions of the test article were prepared in dimethylsulfoxide (DMSO) and stored frozen. Test article concentrations were prepared fresh daily by diluting stock solutions into a physiological saline solution (composition in mM): KCl, 125; CaCl2, 8.5; HEPES, 10; EGTA, 11.25; pH adjusted to 7.2 with KOH (prepared weekly and refrigerated until used). All test solutions contained 0.1% DMSO.
GH3 cells were grown in culture using standard procedures. Ionic currents were measured from inside-out patches of GH3 cells. Channel activity was monitored in symmetrical K^+ conditions with a holding potential of −60 mV. Activities before and in the presence of each concentration of test articles were recorded for ≧3 minutes, respectively.
Data acquisition and analyses were performed using the suite of pCLAMP (Ver. 8.2) programs (MDS-AT, Sunnyvale, Calif. Percent inhibition by test article was calculated using the following equation: 100*(NPocontrol−NPotest)/NPocontrol Results

[2] = test system: hypercapnic ventilatory response; experiment: Hypercapnic ventilatory response (HCVR, 3% CO2), rat plethysmography; type: in vivo; details: for hypercapnia ventilatory response (HCVR): 3% CO2
Procedure: A 1.5 mg/mL stock was created to give an infusion dose of 0.10 mg/kg/min. A separate 0.45 mg/mL stock was created to give an infusion dose of 0.03 mg/kg/min. All compound solutions and vehicles were titrated to have a pH between 4-8, using a pH paper and titrating with NaOH or HCl solution.
Male Sprague-Dawley rats (Harlan, Inc.), 250-350 g at time of dosing, had been surgically prepared by Harlan to contain jugular vein cannulas. A 12 chamber plethysmography system with temperature/humidity compensation (Epstein et al., 1980, J. Apply Physiol. 49:1107-1115) from Buxco, Inc. (PLY 3223; Buxco, Inc, Wilmington, N.C., USA) using Biosystem XA software, v2.11.1 and a customized 12 site automated infusion system (Harvard Apparatus, Instech, Inc). Gas mixer (CWE Inc.) was used for this experiment to give concentrations of hypercapnia (3% CO2, 21% O2, balance nitrogen). Three tanks containing 100% O2, CO2, and nitrogen were attached to the gas mixer, with the customized gas mixture fed to each plethysmograph at a rate of 2 L/min.
Rat whole body plethysmography was used to evaluate and quantify minute ventilation and the pattern of breathing. A respiratory waveform was generated from the exchange of air between the animal and the chamber. This exchange induced changes in air volume that were measured with a pressure transducer, constituting the respiratory waveform (Lomask M., 2005, “Respiration measurement in the whole body plethysmography,” Buxco Inc., retrieved from http://www dot buxco dot com/downloads/LomaskWBP dot pdf). Atmospheric temperature and humidity were also measured using temperature and humidity probes that sampled chamber conditions. A compensation factor was then determined and applied to the respiratory waveform using a standardized algorithm (Epstein et al., 1980, J. Apply Physiol. 49:1107-1115) to compensate for respiratory conditioning, which was reported as the parameter COMP.
All animals were acclimated to plethysmography chambers for at least 1 hour, or until animals were no longer restless (up to 2 hours prior to data collection). Minute ventilation (MV) was calculated by the Biosystem XA software from direct measurements of tidal volume (TV) and respiratory frequency (f) using the formula MV=TV×f. Minute ventilation (mL/min) is a common endpoint for evaluating ventilatory performance. The protocol included compound (XXXVI) given as a 20 minute infusion, followed by a 20 minute exposure to 3% hypercapnia in addition to the compound (XXXVI) infusion. After 20 minutes of hypercapnia, the compound (XXXVI) infusion continued for an additional 10 minutes, resulting in a total compound (XXXVI) infusion time of 50 minutes. Each experiment included 6 animals receiving compound (XXXVI) (0.03 or 0.10 mg/kg/min) tested against 6 animals receiving vehicle, all of which were challenged with hypercapnia (3%). Animals were continuously monitored and observed for adverse behavioral effects. Such findings were recorded into laboratory notebooks for each individual animal tested.
Respiratory data was collected on a breath-by-breath basis and averaged into 1 min time bins for data analysis. […] Each parameter was compared to vehicle in order to calculate percent difference, using area under the curve (AUC) and peak response values for each defined acquisition period using a customized visual basic restructure analysis macro (Lopotosky, S. Galleon Buxco Restructure tool, v5.2, 2008). All of the data analysis for the single, stand-alone studies was done using the restructure analysis macro (Lopotosky, S. Galleon Buxco Restructure tool, v5.2, 2008). All merged data analysis with both doses was performed in Graphpad Prism for MV, TV, and f only, for hypercapnia studies. Additionally, percent increase was calculated based on the cohort average immediately prior to the hypercapnic challenge to the group's peak response. For merged hypercapnia studies, t=62 to t=67 was used.

T1 sequence (Q62976 whole entry): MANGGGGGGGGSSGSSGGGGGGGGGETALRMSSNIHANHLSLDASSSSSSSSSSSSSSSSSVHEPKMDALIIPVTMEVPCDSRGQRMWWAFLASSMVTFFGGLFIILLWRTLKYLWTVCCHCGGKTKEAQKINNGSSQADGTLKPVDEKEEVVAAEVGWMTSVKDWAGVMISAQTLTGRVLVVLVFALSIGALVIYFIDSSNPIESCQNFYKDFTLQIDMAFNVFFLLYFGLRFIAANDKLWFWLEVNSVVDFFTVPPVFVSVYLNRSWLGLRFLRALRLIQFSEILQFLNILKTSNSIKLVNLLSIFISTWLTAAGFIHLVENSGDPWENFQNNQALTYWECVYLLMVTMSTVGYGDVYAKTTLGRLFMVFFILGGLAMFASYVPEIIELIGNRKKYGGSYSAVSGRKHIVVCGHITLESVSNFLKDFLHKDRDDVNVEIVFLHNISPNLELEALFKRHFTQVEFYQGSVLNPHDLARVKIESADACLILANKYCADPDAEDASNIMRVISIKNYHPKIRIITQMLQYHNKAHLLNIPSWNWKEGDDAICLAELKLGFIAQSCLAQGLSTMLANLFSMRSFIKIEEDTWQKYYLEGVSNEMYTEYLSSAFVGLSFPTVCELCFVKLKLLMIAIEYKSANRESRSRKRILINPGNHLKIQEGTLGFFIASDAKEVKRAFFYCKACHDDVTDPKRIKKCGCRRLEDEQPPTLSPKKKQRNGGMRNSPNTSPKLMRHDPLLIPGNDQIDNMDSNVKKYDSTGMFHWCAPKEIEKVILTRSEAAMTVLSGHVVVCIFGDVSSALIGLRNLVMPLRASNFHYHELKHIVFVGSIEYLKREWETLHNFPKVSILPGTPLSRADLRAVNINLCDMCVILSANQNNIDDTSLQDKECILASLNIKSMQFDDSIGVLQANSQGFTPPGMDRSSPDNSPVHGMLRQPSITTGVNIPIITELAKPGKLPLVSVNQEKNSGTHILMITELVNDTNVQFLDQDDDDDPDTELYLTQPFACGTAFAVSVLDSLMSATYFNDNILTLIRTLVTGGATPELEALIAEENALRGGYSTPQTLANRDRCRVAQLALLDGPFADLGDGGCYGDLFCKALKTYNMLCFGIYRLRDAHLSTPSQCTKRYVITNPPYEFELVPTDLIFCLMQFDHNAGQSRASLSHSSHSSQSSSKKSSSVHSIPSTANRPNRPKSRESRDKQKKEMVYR

SMILES | reduction of total channel open probability ([1]; 10 μM) [%] | inhibition of the native BK channel ([1]; 1 and 10 μM) | Inhibition (%), Average ([1]; (XXXV) 1 (mM as printed)) [%] | NPo, Average ([1]; (XXXV) 1 (mM as printed)) | Inhibition (%), Average ([1]; (XXXV) 10 (mM as printed)) [%] | NPo, Average ([1]; (XXXV) 10 (mM as printed)) | facilitation of the HCVR ([2]; 0.03 mg/kg/min (same as vehicle group), t=62 to t=67) [%] | respiration in naive animals ([2]; 0.03 mg/kg/min IV infusion) | hypercapnia ventilatory response (HCVR) ([2]; 0.03 mg/kg/min) | respiration in naive animals ([2]; 0.10 mg/kg/min IV infusion) | hypercapnia ventilatory response (HCVR) ([2]; 0.10 mg/kg/min) | increase in MV during the HCVR challenge ([2]; 0.10 mg/kg/min, t=62 to t=67, on top of elevated MV due to compound alone) [%] | adverse clinical observations ([2]; rats, doses tested)
CCCNc1nc(NCCC)nc(N(C)OC)n1 [XXXV, N-(4,6-Bis-n-propylamino-[1,3,5]triazin-2-yl)-N,O-dimethyl-hydroxylamine] | 42 | concentration—dependent inhibition | 22.3 | 0.014 | 41.4 | 0.020 |  |  |  |  |  |  | 
CCCNc1nc(NCCC)nc(N(C)OC)n1.O=S(=O)(O)O [XXXVI, N-(4,6-Bis-n-propylamino-[1,3,5]triazin-2-yl)-N,O-dimethyl-hydroxylamine hydrogen sulfate] |  |  |  |  |  |  | 60 | little or no effect | no effect | stimulated respiration in naive animals | augmentation of the hypercapnia ventilatory response (HCVR) | 44 | no adverse clinical observations
